Values joined by “and” are separate entries in the source; they are usually repeats but may differ in a detail not shown here. Equal values may be shown once. Inconclusive results and toxic doses are left out. Rule as the data show it: active = T/C of 150% or more; inactive = T/C below 125%.
Test system: L1210 leukemia ip in BDF1 mice, survival T/C
Experiment: NCI In Vivo Anticancer Drug Screen. Data for tumor model L1210 Leukemia (intraperitoneal) in B6D2F1 (BDF1) mice
Settings: endpoint: mean survival time, higher = longer survival
Procedure, shortened: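 Value reflects the ratio of survival in compound-treated mice to survival in vehicle-treated controls, with both groups carrying the same transplanted tumor.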

[1] = dose: 100.0 mg/kg/injection, schedule: Q01DX009 (ip), vehicle: Klucel (hydroxypropylcellulose) (HPC)
[2] = dose: 200.0 mg/kg/injection, schedule: Q01DX009 (ip), vehicle: Klucel (hydroxypropylcellulose) (HPC)
[3] = dose: 400.0 mg/kg/injection, schedule: Q01DX009 (ip), vehicle: Klucel (hydroxypropylcellulose) (HPC)
[4] = dose: 100.0 mg/kg/injection, schedule: Q01DX009 (ip), vehicle: saline with Tween-80
[5] = dose: 200.0 mg/kg/injection, schedule: Q01DX009 (ip), vehicle: saline with Tween-80
[6] = dose: 400.0 mg/kg/injection, schedule: Q01DX009 (ip), vehicle: saline with Tween-80
[7] = dose: 100.0 mg/kg/injection, schedule: Q01DX001 (ip), vehicle: saline
[8] = dose: 200.0 mg/kg/injection, schedule: Q01DX001 (ip), vehicle: saline
[9] = dose: 400.0 mg/kg/injection, schedule: Q01DX001 (ip), vehicle: saline
[10] = dose: 25.0 mg/kg/injection, schedule: Q04DX003 (ip), vehicle: saline
[11] = dose: 50.0 mg/kg/injection, schedule: Q04DX003 (ip), vehicle: saline
[12] = dose: 100.0 mg/kg/injection, schedule: Q04DX003 (ip), vehicle: saline
[13] = dose: 200.0 mg/kg/injection, schedule: Q04DX003 (ip), vehicle: saline
[14] = dose: 400.0 mg/kg/injection, schedule: Q04DX003 (ip), vehicle: saline
[15] = dose: 100.0 mg/kg/injection, schedule: Q04DX003 (ip), vehicle: saline with Tween-80
[16] = dose: 200.0 mg/kg/injection, schedule: Q04DX003 (ip), vehicle: saline with Tween-80
[17] = dose: 400.0 mg/kg/injection, schedule: Q04DX003 (ip), vehicle: saline with Tween-80
[18] = dose: 50.0 mg/kg/injection, schedule: Q01DX009 (ip), vehicle: saline
[19] = dose: 100.0 mg/kg/injection, schedule: Q01DX009 (ip), vehicle: saline
[20] = dose: 100.0 mg/kg/injection, schedule: Q04DX003 (ip), vehicle: Klucel (hydroxypropylcellulose) (HPC)
[21] = dose: 200.0 mg/kg/injection, schedule: Q04DX003 (ip), vehicle: Klucel (hydroxypropylcellulose) (HPC)
[22] = dose: 400.0 mg/kg/injection, schedule: Q04DX003 (ip), vehicle: Klucel (hydroxypropylcellulose) (HPC)
[23] = dose: 100.0 mg/kg/injection, schedule: Q01DX001 (ip), vehicle: Klucel (hydroxypropylcellulose) (HPC)
[24] = dose: 200.0 mg/kg/injection, schedule: Q01DX001 (ip), vehicle: Klucel (hydroxypropylcellulose) (HPC)
[25] = dose: 400.0 mg/kg/injection, schedule: Q01DX001 (ip), vehicle: Klucel (hydroxypropylcellulose) (HPC)

Measured: T/C

CN(C)C(=O)Sc1cc(Cl)c(S(=O)(=O)F)cc1Cl
inactive: [1] 97 % of control | [2] 100 % of control | [3] 90 % of control

CCN(CC)P1(=O)NCCCO1 (stereo not given)
inactive: [4] 87 % of control | [5] 94 % of control | [6] 92 % of control

O=C(Nc1cnccn1)C(F)(F)F
inactive: [7] 105 % of control | [8] 97 % of control | [9] 105 % of control

CSc1cc2c(cc1NC(C)=O)C(=O)c1cc(F)ccc1-2
inactive: dose: 100.0 mg/kg/injection, schedule: Q01DX001 (ip), vehicle: carboxymethylcellulose (CMC) 98 % of control | dose: 200.0 mg/kg/injection, schedule: Q01DX001 (ip), vehicle: carboxymethylcellulose (CMC) 101 % of control | dose: 400.0 mg/kg/injection, schedule: Q01DX001 (ip), vehicle: carboxymethylcellulose (CMC) 95 % of control

NC(=O)C(O)C(O)C(O)C(O)CO (stereo not given)
inactive: dose: 100.0 mg/kg/injection, schedule: Q04DX002 (ip), vehicle: saline 91 % of control and 99 % of control | dose: 200.0 mg/kg/injection, schedule: Q04DX002 (ip), vehicle: saline 95 % of control and 96 % of control | dose: 400.0 mg/kg/injection, schedule: Q04DX002 (ip), vehicle: saline 95 % of control and 105 % of control

O=C1NC(=O)c2c(Cl)c(Cl)c(Cl)c(Cl)c21
inactive: [10] 95 % of control | [11] 106 % of control | [12] 92 % of control and 93 % of control | [13] 98 % of control | [14] 111 % of control

CN(C)c1ccc2c(c1)Cc1cc(NC(=O)/C=C/C(=O)O)ccc1-2
inactive: [12] 112 % of control | [13] 93 % of control | [14] 91 % of control

CC(C)C(C(=O)O)N1C(=O)C2C3C=CC(C3)C2C1=O (stereo not given)
inactive: [15] 102 % of control | [16] 102 % of control | [17] 97 % of control

N=Cc1c(O)n(-c2ccccc2)c(=O)n(-c2ccccc2)c1=O
inactive: [4] 102 % of control | [5] 104 % of control | [6] 93 % of control

CC(=O)NC1C(OCc2ccccc2)OC(CO)C(O)C1OCc1ccccc1 (stereo not given)
inactive: dose: 100.0 mg/kg/injection, schedule: Q01DX001 (ip), vehicle: saline with Tween-80 100 % of control | dose: 200.0 mg/kg/injection, schedule: Q01DX001 (ip), vehicle: saline with Tween-80 107 % of control | dose: 400.0 mg/kg/injection, schedule: Q01DX001 (ip), vehicle: saline with Tween-80 96 % of control

O=C(Nc1ccc(C2=NCCS2)cc1)c1ccc(C(=O)Nc2ccc(C3=NCCS3)cc2)cc1
inactive: dose: 15.0 mg/kg/injection, schedule: Q01DX Z (ip), vehicle: carboxymethylcellulose (CMC) 98 % of control | dose: 30.0 mg/kg/injection, schedule: Q01DX Z (ip), vehicle: carboxymethylcellulose (CMC) 96 % of control | dose: 60.0 mg/kg/injection, schedule: Q01DX Z (ip), vehicle: carboxymethylcellulose (CMC) 95 % of control | dose: 120.0 mg/kg/injection, schedule: Q01DX Z (ip), vehicle: carboxymethylcellulose (CMC) 96 % of control | dose: 125.0 mg/kg/injection, schedule: Q01DX Z (ip), vehicle: water 98 % of control

CCC(O)Cc1c[nH]c(=O)[nH]c1=O (stereo not given)
inactive: [18] 93 % of control | [19] 98 % of control | [15] 94 % of control | [16] 94 % of control

CC(=O)N(/C=C/C=C/C=C1\C(=O)N(c2ccc(S(=O)(=O)O)cc2)N=C1C)c1ccccc1
inactive: [7] 99 % of control | [8] 98 % of control | [9] 88 % of control

[O-]c1c[n+](C23CCC(c4ccccc42)c2ccccc23)no1
inactive: [1] 102 % of control | [20] 100 % of control | [2] 102 % of control | [21] 103 % of control | [3] 95 % of control | [22] 100 % of control

C=CC1CC1(C(=O)O)C(=O)O (stereo not given)
inactive: [4] 93 % of control | [15] 98 % of control | [5] 96 % of control | [16] 98 % of control | [6] 90 % of control | [17] 93 % of control

CCN(CC)CCSC(CO)c1ccccc1 (stereo not given)
inactive: dose: 75.0 mg/kg/injection, schedule: Q04DX003 (ip), vehicle: Klucel (hydroxypropylcellulose) (HPC) 97 % of control | dose: 150.0 mg/kg/injection, schedule: Q04DX003 (ip), vehicle: Klucel (hydroxypropylcellulose) (HPC) 92 % of control

CCCCCCCCCCC1CCCCC1
inactive: dose: 50.0 mg/kg/injection, schedule: Q04DX002 (ip), vehicle: saline with Tween-80 91 % of control | dose: 100.0 mg/kg/injection, schedule: Q04DX002 (ip), vehicle: saline with Tween-80 91 % of control | dose: 200.0 mg/kg/injection, schedule: Q04DX002 (ip), vehicle: saline with Tween-80 98 % of control

NCCC(=O)NO
inactive: [7] 98 % of control | [8] 88 % of control | [9] 106 % of control

CCC[As](=O)(O)c1ccc(Cl)cc1
inactive: dose: 1.56 mg/kg/injection, schedule: Q01DX001 (ip), vehicle: Klucel (hydroxypropylcellulose) (HPC) 100 % of control | dose: 3.13 mg/kg/injection, schedule: Q01DX001 (ip), vehicle: Klucel (hydroxypropylcellulose) (HPC) 91 % of control | dose: 6.25 mg/kg/injection, schedule: Q01DX001 (ip), vehicle: Klucel (hydroxypropylcellulose) (HPC) 98 % of control | dose: 12.5 mg/kg/injection, schedule: Q01DX001 (ip), vehicle: Klucel (hydroxypropylcellulose) (HPC) 109 % of control | dose: 25.0 mg/kg/injection, schedule: Q01DX001 (ip), vehicle: Klucel (hydroxypropylcellulose) (HPC) 92 % of control

CCCCCCCC/C=C\CCCCCCCC(=O)NCCCOCCOCC
inactive: dose: 75.0 mg/kg/injection, schedule: Q04DX003 (ip), vehicle: saline 94 % of control | dose: 150.0 mg/kg/injection, schedule: Q04DX003 (ip), vehicle: saline 96 % of control | dose: 300.0 mg/kg/injection, schedule: Q04DX003 (ip), vehicle: saline 96 % of control

CCOc1ccc2ccsc2c1
inactive: [7] 98 % of control | [8] 98 % of control | [9] 96 % of control

COc1cccc(/C(=C/c2ccc([N+](=O)[O-])cc2)C(=O)O)c1
inactive: [23] 100 % of control | [1] 97 % of control and 100 % of control | [20] 100 % of control | [24] 109 % of control | [2] 96 % of control and 87 % of control | [21] 105 % of control | [25] 97 % of control | [3] 100 % of control and 91 % of control | [22] 105 % of control

Cc1cc2cc3c(=O)[nH]c(=O)nc-3n(CC(O)C(O)C(O)COP(=O)(O)O)c2cc1C (stereo not given)
inactive: dose: 25.0 mg/kg/injection, schedule: Q01DX009 (ip), vehicle: saline 96 % of control | [18] 100 % of control | [19] 94 % of control and 89 % of control | [12] 110 % of control | dose: 200.0 mg/kg/injection, schedule: Q01DX009 (ip), vehicle: saline 86 % of control | [13] 100 % of control | [14] 98 % of control

C=C(Br)CNC(=O)NN1CCOCC1
inactive: [23] 115 % of control | [20] 95 % of control | [24] 111 % of control | [21] 98 % of control | [25] 102 % of control | [22] 97 % of control

CC[N+]1(C2CCCCC2)CCCCC1
inactive: dose: 5.0 mg/kg/injection, schedule: Q01DX001 (ip), vehicle: saline 101 % of control | dose: 10.0 mg/kg/injection, schedule: Q01DX001 (ip), vehicle: saline 103 % of control | dose: 20.0 mg/kg/injection, schedule: Q01DX001 (ip), vehicle: saline 100 % of control | dose: 40.0 mg/kg/injection, schedule: Q01DX001 (ip), vehicle: saline 91 % of control | dose: 75.0 mg/kg/injection, schedule: Q01DX001 (ip), vehicle: saline 96 % of control

Cc1cc(=O)[nH]c(NC(C)C(=O)O)n1 (stereo not given)
inactive: dose: 12.5 mg/kg/injection, schedule: Q04DX003 (ip), vehicle: saline 101 % of control | [10] 101 % of control | [11] 101 % of control
